The assay concerns the target T1, TrkB-wt (Mus musculus, UniProt P15209).
T1 construct: gene Ntrk2; full-length receptor with kinase domain, pcDNA3, transiently overexpressed in HEK293; 130 kDa mature and 90 kDa underglycosylated
The assay is described as follows: Western blot and immunofluorescence of pTrk-kin, transfected HEK293. The format is cell-based. As to conditions: no neurotrophin, constitutive kinase activity; concentrations only in figure. For orientation: Immunoblotting shows a protein as a band on a membrane.

T1 sequence (P15209 32-821): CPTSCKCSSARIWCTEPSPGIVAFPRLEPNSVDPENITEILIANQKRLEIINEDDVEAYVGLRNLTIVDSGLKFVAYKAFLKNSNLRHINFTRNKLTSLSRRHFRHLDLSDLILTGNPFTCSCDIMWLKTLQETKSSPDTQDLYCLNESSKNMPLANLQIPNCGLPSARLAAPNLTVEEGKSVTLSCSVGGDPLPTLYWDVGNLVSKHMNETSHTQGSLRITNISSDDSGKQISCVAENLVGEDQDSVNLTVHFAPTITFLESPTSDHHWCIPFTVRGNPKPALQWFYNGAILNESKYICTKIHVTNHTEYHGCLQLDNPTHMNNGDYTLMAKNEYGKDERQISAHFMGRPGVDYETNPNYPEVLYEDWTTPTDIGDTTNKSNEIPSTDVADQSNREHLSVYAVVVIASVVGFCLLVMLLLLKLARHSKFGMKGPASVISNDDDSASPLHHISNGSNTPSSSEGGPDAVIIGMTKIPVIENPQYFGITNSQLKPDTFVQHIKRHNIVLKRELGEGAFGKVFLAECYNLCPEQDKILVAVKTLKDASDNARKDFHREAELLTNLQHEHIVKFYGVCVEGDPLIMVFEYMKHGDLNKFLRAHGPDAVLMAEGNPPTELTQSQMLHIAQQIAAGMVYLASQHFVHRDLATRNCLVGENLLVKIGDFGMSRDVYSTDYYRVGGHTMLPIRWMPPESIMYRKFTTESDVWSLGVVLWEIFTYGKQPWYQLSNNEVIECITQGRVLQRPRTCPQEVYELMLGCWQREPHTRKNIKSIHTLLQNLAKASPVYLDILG

As for `CN1CCN(c2ccc(C(=O)Nc3n[nH]c4ccc(Cc5cc(F)cc(F)c5)cc34)c(NC3CCOCC3)c2)CC1` [Entrectinib], the “Western blot and immunofluorescence of pTrk-kin, transfected HEK293” value is on record as “TrkB self-activity is reduced upon inhibitor treatment”.

With `O=C(Nc1cnn2ccc(N3CCC[C@@H]3c3cc(F)ccc3F)nc12)N1CC[C@H](O)C1` [LOXO-101], the “Western blot and immunofluorescence of pTrk-kin, transfected HEK293” value is listed as “TrkB self-activity is reduced upon inhibitor treatment”.

For the origin of these results see article PMC11405271, “Atypical cellular responses mediated by intracellular constitutive active TrkB (NTRK2) kinase domains and a solely intracellular NTRK2-fusion oncogene” (Cancer Gene Therapy, 2024).
